Read-outs that look alike come from different tables or passages of the source.
Key:
[1] = test system: Pasteurella piscicida (P.pis) No. 2; assay: In vitro sensitivity test; format: cell-based; details: 25°C, 40 to 48 hours
Summary of the method: (§1)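 Bacteria were of animal origin. MS strains were grown by liquid dilution in Frey medium with 12 % pig-serum and 0.01 % βNAD at 37°C for 7 days. S.au was tested by agar dilution on Mueller Hinton agar, 37°C for 20 to 24 hours. P.pis was grown on 1.5 % NaCl heart infusion agar at 25°C for 40 to 48 hours.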

[2] = test system: Mycoplasma synoviae (MS) F10-2as; assay: In vitro sensitivity test (liquid dilution method); format: cell-based; details: 37°C, 7 days
Summary of the method: as §1

H.pg strain (i.e. 221) = assay: Experimental H.pg infection to chicken, through bait; format: in vivo; details: 28-days chicken infected with 4 x 10⁸ CFU/fowl, dissection, 10th day after inoculation
From the text: (§2) In these experiments, the compound (I) was applied to the designated animals by (1) oral administration, (2) incorporation into baits and (3) intramuscular injection, the details of which are explained below.

[3] = test system: Salmonella typhimurium (S.typhi) 13311; assay: In vitro sensitivity test (agar dilution method); format: cell-based; details: 37°C, 20 to 24 hours
[4] = test system: TS-resistant strain of MG; format: in vivo, chicken; details: for Number of infected fowl/Number of fowl tested: 3.5 x 10³ CFU/fowl
[5] = test system: H.pp (otherwise called Actinobacillus pleuropneumoniae) strain M-1; assay: Experimental H.pp infection to pig, through injection; format: in vivo; details: injection to thigh muscle one time, dissection 6 days after inoculation
Method: as §2
(3) Preparation of the MG infected fowls was performed in the same manner as in (1) above. Infection of H.pp (otherwise called Actinobacillus pleuropneumoniae) to cause pleuropneumonia in pig was performed by inoculating 5 ml of a fresh cultured strain (i.e. M-1) of H.pp to each nasopharyngeal of some 45 days pigs, each weighing 4 to 9 kg (4 to 5 pigs/group), followed by injection of the test compounds to each thigh muscle at a designated volume one time. Pigs were dissected 6 days after the inoculation. The evaluation of the antimicrobial activity was made by observation of the pneumonia symptomes in air sacs, number of dead body and degree of nodosity in air sacks on dissection.

Acute toxicity (LD50) = details: in vivo, read-out: LD₅₀
From the text: The compounds (I) according to the invention show a higher antimicrobial activity than the control or commercially available antimicrobial agents with a smaller dosage. […]

[6] = test system: Mycoplasma gallisepticum (MG) T-7-T, TS-resistant strain isolated from the field; assay: In vitro sensitivity test (liquid dilution method); format: cell-based; details: 37°C, 7 days
[7] = test system: Mycoplasma synoviae (MS) 1853; assay: In vitro sensitivity test (liquid dilution method); format: cell-based; details: 37°C, 7 days
Summary of the method: as §1

[8] = test system: Mycoplasma hyopneumoniae (Mh) ST-11; assay: In vitro sensitivity test (liquid dilution method); format: cell-based; details: 37°C, 7 days
[9] = test system: Mycoplasma gallisepticum (MG) S6; assay: In vitro sensitivity test (liquid dilution method); format: cell-based; details: 37°C, 7 days
TS-resistant MG [10] = assay: Experimental MG infection to chicken, through injection; format: in vivo; details: 5 fowl tested, 10-days chicken, 3.1 x 10³ CFU/fowl
[11] = test system: Hemophilus pleuropneumonia (H.pp) M-1; assay: In vitro sensitivity test (agar dilution method); format: cell-based; details: 37°C, 20 hours, 10 % CO₂
[12] = test system: Bordetella bronchiseptica (B.br) ABU-1; assay: In vitro sensitivity test (agar dilution method); format: cell-based; details: 37°C, 20 to 24 hours
[13] = test system: Hemophilus paragallinarum (H.pg) S-1; assay: In vitro sensitivity test (agar dilution method); format: cell-based; details: agar dilution, 37°C, 20 hours, 10 % CO₂
[14] = test system: Escherichia coli (E.coli) JC-2; assay: In vitro sensitivity test (agar dilution method); format: cell-based; details: 37°C, 20 to 24 hours
[15] = test system: Escherichia coli (E.coli) E-17, chicken-origin strain isolated from the field; assay: In vitro sensitivity test (agar dilution method); format: cell-based; details: 37°C, 20 to 24 hours
Summary of the method: (§3)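 MS (liquid dilution): Frey medium + 12 % pig-serum + 0.01 % βNAD, 37°C, 7 days. S.au (agar dilution): Mueller Hinton agar, 37°C, 20 to 24 hours. P.pis: heart infusion agar + 1.5 % NaCl, 25°C, 40 to 48 hours. All strains animal-origin.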

[16] = test system: Hemophilus paragallinarum (H.pg) 221; assay: In vitro sensitivity test (agar dilution method); format: cell-based; details: agar dilution, 37°C, 20 hours, 10 % CO₂
[17] = test system: Staphylococcus aureus (S.au) 209P; assay: In vitro sensitivity test (agar dilution method); format: cell-based; details: 37°C, 20 to 24 hours
Summary of the method: as §3

TS-resistant MG [18] = assay: Experimental MG infection to chicken, through bait; format: in vivo; details: 9-days chicken; for Number of fowl having air sack lesions: 1.8 x 10³ CFU/fowl; for Number of infected fowl/Number of fowl tested: 6.6 x 10³ CFU/fowl, dissection 6th day after inoculation

## CNCC12CCCC1CN(c1c(F)cc3c(=O)c(C(=O)O)cn(C4CC4)c3c1F)C2.Cl (stereo not shown) [I-5]
[1]
  In vitro Sensitivity Test P.pis No. 2: 1.56 µg/mL
[2]
  In vitro Sensitivity Test MS F10-2as: 0.2 µg/ml
H.pg strain (i.e. 221)
  Effective concentration to prevent pituita: 1.56 ppm/day
[3]
  In vitro Sensitivity Test S.typhi 13311: 0.2 µg/mL
[4]; in vivo, po
  antimicrobial activity compared with ERFX: two times more effective than ERFX
  complete inihibition of the lesions in air sac at a concentration of: about 3.13 mg/kg
[4]; in vivo, po, 1.56 mg/kg
  Infectious index Left air sack +: 0
  Infectious index Left air sack ++: 0
  Infectious index Left air sack +++: 0
  Infectious index Left air sack -: 4
  Infectious index Right air sack +: 0
  Infectious index Right air sack ++: 1
  Infectious index Right air sack +++: 1
  Infectious index Right air sack -: 2
  Number of fowl having air sack lesions: 2
[4]; in vivo, po, 3.13 mg/kg
  Infectious index Left air sack +: 0
  Infectious index Left air sack ++: 0
  Infectious index Left air sack +++: 0
  Infectious index Left air sack -: 5
  Infectious index Right air sack +: 0
  Infectious index Right air sack ++: 0
  Infectious index Right air sack +++: 0
  Infectious index Right air sack -: 5
  Number of fowl having air sack lesions: 0
[4]; in vivo, po, 6.25 mg/kg
  Infectious index Left air sack +: 0
  Infectious index Left air sack ++: 0
  Infectious index Left air sack +++: 0
  Infectious index Left air sack -: 5
  Infectious index Right air sack +: 0
  Infectious index Right air sack ++: 0
  Infectious index Right air sack +++: 0
  Infectious index Right air sack -: 5
  Number of fowl having air sack lesions: 0
[4]; in vivo, po, 25 mg/kg
  Infectious index Left air sack +: 0
  Infectious index Left air sack ++: 0
  Infectious index Left air sack +++: 0
  Infectious index Left air sack -: 5
  Infectious index Right air sack +: 0
  Infectious index Right air sack ++: 0
  Infectious index Right air sack +++: 0
  Infectious index Right air sack -: 5
  Number of fowl having air sack lesions: 0
[5]; Dose 10 mg/kg
  Number of pig died or developed dyspnea/Number of pig tested: 0/4
  Number of pig having nodi/Number of pig tested: 0/4
Acute toxicity (LD50); ip, Mouse (B6C3F₁, male), i.p.
  LD50: 200 mg/kg
Acute toxicity (LD50); po, Chicken ( -days), p.o.
  LD50: 500 mg/kg
Acute toxicity (LD50); po, Mouse (B6C3F₁, male), p.o.
  LD50: 2000 mg/kg

## CCN1CCN(c2cc3c(cc2F)c(=O)c(C(=O)O)cn3C2CC2)CC1 [ERFX, Enrofuroxasin®, reference compound]
[6]
  In vitro Sensitivity Test MG T-7-T: 0.1 µg/mL
[2]
  In vitro Sensitivity Test MS F10-2as: 3.13 µg/ml
[7]
  In vitro Sensitivity Test MS 1853: 0.1 µg/mL
[8]
  In vitro Sensitivity Test Mh ST-11: 0.05 µg/mL
[9]
  In vitro Sensitivity Test MG S6: 0.1 µg/mL
TS-resistant MG [10]; Dose 1.56 mg/kg
  Number of fowl having air sack lesions: 3
TS-resistant MG [10]; Dose 3.13 mg/kg
  Number of fowl having air sack lesions: 2
H.pg strain (i.e. 221)
  Effective concentration to prevent pituita: 7.8 ppm/day
[11]
  In vitro Sensitivity Test H.pp M-1: 0.2 µg/mL
[12]
  In vitro Sensitivity Test B.br ABU-1: 0.1 µg/mL
[13]
  In vitro Sensitivity Test H.pg S-1: 0.2 µg/mL
[14]
  In vitro Sensitivity Test E.coli JC-2: 0.1 µg/mL
[15]
  In vitro Sensitivity Test E.coli E-17: 0.1 µg/ml
[16]
  In vitro Sensitivity Test H.pg 221: 0.1 µg/mL
[17]
  In vitro Sensitivity Test S.au 209P: 0.1 µg/mL
TS-resistant MG [18]; bait 15.6 ppm/Day
  Number of fowl having air sack lesions: 1
TS-resistant MG [18]; bait 31.3 ppm/Day
  Number of fowl having air sack lesions: 0
  Number of infected fowl/Number of fowl tested: 1/7
TS-resistant MG [18]; bait 62.5 ppm/Day
  Number of fowl having air sack lesions: 0
  Number of infected fowl/Number of fowl tested: 0/7
TS-resistant MG [18]; bait 125 ppm/Day
  Number of infected fowl/Number of fowl tested: 0/7
[4]; oral 1.56 mg/kg, 9-days chicken
  Number of infected fowl/Number of fowl tested: 2/5
[4]; oral 3.13 mg/kg, 9-days chicken, 2.2 x 10³ CFU/fowl
  Number of fowl having air sack lesions: 2
[4]; oral 3.13 mg/kg, 9-days chicken
  Number of infected fowl/Number of fowl tested: 0/5
[4]; oral 6.25 mg/kg, 9-days chicken, 1.7 x 10³ CFU/fowl
  Number of fowl having air sack lesions: 1
[4]; oral 6.25 mg/kg, 9-days chicken, 2.2 x 10³ CFU/fowl
  Number of fowl having air sack lesions: 0
[4]; oral 6.25 mg/kg, 9-days chicken
  Number of infected fowl/Number of fowl tested: 0/5
[4]; oral 6.25 mg/kg, 10-days chicken, 1.2 x 10³ CFU/fowl
  Number of fowl having air sack lesions: 2
[4]; oral 6.25 mg/kg, 10-days chicken, 3.0 x 10³ CFU/fowl
  Number of fowl having air sack lesions: 2
[4]; oral 12.5 mg/kg, 9-days chicken, 1.7 x 10³ CFU/fowl
  Number of fowl having air sack lesions: 0
[4]; oral 12.5 mg/kg, 9-days chicken, 2.2 x 10³ CFU/fowl
  Number of fowl having air sack lesions: 0
[4]; oral 12.5 mg/kg, 10-days chicken, 1.2 x 10³ CFU/fowl
  Number of fowl having air sack lesions: 0
[4]; oral 12.5 mg/kg, 10-days chicken, 3.0 x 10³ CFU/fowl
  Number of fowl having air sack lesions: 0
[4]; oral 25.0 mg/kg, 9-days chicken, 1.7 x 10³ CFU/fowl
  Number of fowl having air sack lesions: 0
[4]; oral 25.0 mg/kg, 10-days chicken, 1.2 x 10³ CFU/fowl
  Number of fowl having air sack lesions: 0
[4]; oral 25.0 mg/kg, 10-days chicken, 3.0 x 10³ CFU/fowl
  Number of fowl having air sack lesions: 0
[4]; oral administration, MG-infected chicken
  complete inihibition of the lesions in air sac at a concentration of: 12.5 mg/kg
[5]; Dose 5 mg/kg
  Number of pig died or developed dyspnea/Number of pig tested: 0/4
  Number of pig having nodi/Number of pig tested: 0/4
[5]; Dose 10 mg/kg
  Number of pig died or developed dyspnea/Number of pig tested: 0/4
  Number of pig having nodi/Number of pig tested: 0/4

From EP0429304A2, “Pyridone-carboxylic acid derivatives and their use as veterinary medicines” (SHIONOGI SEIYAKU KABUSHIKI KAISHA trading under the name of …, priority 1989, dated 1991)
